Like-named read-outs stand apart in the source and are kept apart here.
Tests used:
S. mansoni schistosomula = S. mansoni schistosomula high-throughput phenotype and motility screen (Roboworm), 72 h; format: cell-based, Schistosoma mansoni; conditions: for EC50: Schistosoma mansoni; for Effect on phenotype and motility of S. mansoni schistosomula: primary tested concentrations 10 and 50 μM
Method: Cercariae derived from the NMRI ([…]) Puerto Rican strain (PR-1) of S. mansoni were shed from two Biomphalaria glabrata strains, the NMRI albino and pigmented outbred strains, under intensified lighting conditions (1 h of incubation at 26 °C). Cercariae were then mechanically transformed into schistosomula as previously described.
High-throughput screening (HTS) of selected compounds was conducted as previously described. Briefly, newly transformed schistosomula were distributed in a 384-well tissue culture plate (PerkinElmer, cat 6007460, seeding density of 120 parasites/well). Each compound (at a single concentration or two-fold titrations) was transferred into individual wells alongside the positive and negative controls (AUR at 10 μM final concentration in 0.625% DMSO and 0.625% DMSO, respectively). Schistosomula/compound co-cultures were then incubated at 37 °C for 72 h in a humidified atmosphere containing 5% CO2. Following the co-culture period, automatic assessment of compound-induced schistosomula motility and phenotypic changes were conducted with the high-content imaging platform Roboworm using the image analysis model previously described by Paveley et al..

S. mansoni adult worms = assay: S. mansoni adult worm motility screen (WormassayGP2), 72 h; format: cell-based, Schistosoma mansoni; conditions: 12.5 and 6.25 μM
From the text: Mice (Mus musculus HsdOLa:TO - Tuck Ordinary; Envigo, UK) were used for the mammalian-specific propagation of the S. mansoni life cycle. Experimental animals were infected with 4000 or 180 S. mansoni cercariae/mouse and perfused three- or seven-weeks post-infection to obtain S. mansoni juvenile or adult worms, respectively. Preparation steps following perfusion have been described previously. Briefly, the parasite material was washed three times with pre-warmed adult worm media (DMEM (Gibco, Paisley, UK) supplemented with 10% (v/v) Fetal Calf Serum (FCS, Gibco, Paisley, UK), 1% (v/v) L-glutamine (Gibco, Paisley, UK) and an antibiotic mixture (150 Units/ml penicillin and 150 μg/ml streptomycin; Gibco, UK)) to remove residual host contamination and incubated in a humidified environment containing 5% CO2 at 37 °C for at least 1 h.
For the evaluation of anti-schistosomal activity on the adult stage of the parasite, 7-wk old worms were transferred into 48 well tissue culture plates (1–3 worm pairs/well, in duplicate). […] DMSO (0.5%) and praziquantel (10 μM in 0.5% DMSO) were also included as negative and positive control treatments. Treated adult worms were incubated for 72 h in a humidified environment containing 5% CO2 at 37 °C. Parasite motility after compound treatment was assessed by a digital image processing-based system (WormassayGP2), modified after Wormassay. Following compound-parasite co-incubation, eggs were collected, fixed in formalin (10% v/v formaldehyde) and enumerated aiming to collect further information on any compound-induced effects on parasite fecundity and IVLE production.

[1] = 72 h, Table 2, motility, 72 h, three replicate titrations (0.313–10 μM), read-out: Activity on schistosomula (EC50, μM - 72 h) M
[2] = 72 h, Table 2, phenotype, 72 h, three replicate titrations (0.313–10 μM), read-out: Activity on schistosomula (EC50, μM - 72 h) P
[3] = 72 h, Table S7, motility, 95% CI in brackets, read-out: Activity on schistosomula (EC50, µM - 72 h) (95% CI) M
[4] = 72 h, Table S7, phenotype, 95% CI in brackets, read-out: Activity on schistosomula (EC50, µM - 72 h) (95% CI) P
[5] = Table 5, Series C, read-out: Anti-schistosomal activity EC50 Schistosomula (μM) Motility
[6] = Table 5, Series C, read-out: Anti-schistosomal activity EC50 Schistosomula (μM) Phenotype
[7] = 72 h, Table 1, 72 h, two dose response titrations (0.313–10 μM), 95% CI in brackets, read-out: Activity on schistosomula (EC50, μM - 72 h) Motility
[8] = 72 h, Table 1, 72 h, two dose response titrations (0.313–10 μM), 95% CI in brackets, read-out: Activity on schistosomula (EC50, μM - 72 h) Phenotype
[9] = 72 h, Table 1, mean of phenotype and motility EC50, 72 h, read-out: Activity on schistosomula (EC50, μM - 72 h) Average
[10] = Fig. S3, average schistosomula EC50, read-out: EC50 (Fig. S3, anti-schistosomula activity)

Compound	EC50 (S. mansoni schistosomula; [1])	EC50 (S. mansoni schistosomula; [2])	EC50 (S. mansoni schistosomula; [3])	EC50 (S. mansoni schistosomula; [4])	EC50 (S. mansoni schistosomula; [7])	EC50 (S. mansoni schistosomula; [8])	Effect on phenotype and motility of S. mansoni schistosomula (S. mansoni schistosomula; 72 h)	further results
O=C(Nc1ccc2nc(Nc3ccc(Cl)c(Cl)c3)c(Nc3ccc(Cl)c(Cl)c3)nc2c1)C1CCCCC1 [Compound 22e, N-(2,3-bis((3,4-dichlorophenyl)amino)quinoxalin-6-yl)cyclohexanecarboxamide]	> 50 µM	> 50 µM	> 50 µM	> 50 µM				EC50 (S. mansoni schistosomula; [5]): > 50 µM; EC50 (S. mansoni schistosomula; [6]): > 50 µM
Cc1ccc(/N=c2\[nH]c3ccccc3s\c2=N\c2ccc(C)cc2)cc1 [Compound 2]					> 50 µM	> 50 µM	did not have any effect	EC50 (S. mansoni schistosomula; [10]): > 50 µM
O=[N+]([O-])c1ccc2nc(O)c(O)nc2c1 [6-nitro-2,3-dihydroxy-quinoxaline]	> 50 µM	> 50 µM	> 50 µM	> 50 µM				EC50 (S. mansoni schistosomula; Table 3, read-out: Anti-schistosomal activity EC50 (μM) Schistosomula Motility): > 50 µM; EC50 (S. mansoni schistosomula; Table 3, read-out: Anti-schistosomal activity EC50 (μM) Schistosomula Phenotype): > 50 µM
COc1ccc(/N=c2\[nH]c3ccccc3s\c2=N\c2ccc(OC)cc2)cc1 [Compound 3]					> 50 µM	> 50 µM	did not have any effect	EC50 (S. mansoni schistosomula; [10]): > 50 µM
O=C(O)C=Cc1cccc(Nc2nc3ccc([N+](=O)[O-])cc3nc2Nc2cccc(C=CC(=O)O)c2)c1 [Compound 24]					> 10 µM	> 10 µM	weak effect	

Now from value to molecule, other results behind:

EC50 (S. mansoni schistosomula; [1])	EC50 (S. mansoni schistosomula; [2])	EC50 (S. mansoni schistosomula; [3])	EC50 (S. mansoni schistosomula; [4])	EC50 (S. mansoni schistosomula; [7])	EC50 (S. mansoni schistosomula; [8])	Compound	Effect on phenotype and motility of S. mansoni schistosomula (S. mansoni schistosomula; 72 h)	further results
				4.87 µM	5.92 µM	CCOc1ccc(Nc2nc3ccccc3nc2Nc2ccc(OCC)cc2)cc1 [Compound 9]		Activity on schistosomula in the primary screen at 10 μM (S. mansoni schistosomula; 72 h): retained activity; EC50 (S. mansoni schistosomula; [9]): 5.39 µM
> 10 µM	> 10 µM	> 10 µM	> 10 µM			Clc1ccc(Nc2nc3ccc(N4CCCC4)cc3nc2Nc2ccc(Cl)c(Cl)c2)cc1Cl [Compound 22b, N^2, N^3-bis(3,4-dichlorophenyl)-6-(pyrrolidin-1-yl)quinoxaline-2,3-diamine]		Activity on schistosomula in the primary screen at 50 μM (S. mansoni schistosomula; 50 μM, 72 h): affected schistosomula motility, but not phenotype; EC50 (S. mansoni schistosomula; [5]): > 10 µM; EC50 (S. mansoni schistosomula; [6]): > 10 µM
				1.23 µM	1.62 µM	Cc1cccc(Nc2nc3ccc([N+](=O)[O-])cc3nc2Nc2cccc(C)c2)c1 [Compound 20]		Activity on schistosomula in the primary screen at 10 μM (S. mansoni schistosomula; 72 h): retained activity; EC50 (S. mansoni schistosomula; [9]): 1.42 µM; Effect on adult worm motility at 12.5 and 6.25 μM (S. mansoni adult worms): particularly active
				> 10 µM	> 10 µM	Cc1ccc(Nc2nc3ccccc3nc2Nc2ccc(C)cc2)cc1 [Compound 15]	weak effect	EC50 (S. mansoni schistosomula; [10]): > 10 µM
> 10 µM	> 10 µM	> 10 µM	> 10 µM			Cc1cccc(Nc2nc3ccc([N+](=O)[O-])cc3nc2Nc2cccc(C)c2C)c1C [Compound 27, N2, N3-bis(2,3-dimethylphenyl)-6-nitroquinoxaline-2,3-diamine]		EC50 (S. mansoni schistosomula; 72 h, read-out: EC50 on schistosomula (bounds and ranges given)): > 10 µM; EC50 (S. mansoni schistosomula; Table 4, Series A, read-out: Anti-schistosomal activity EC50 Schistosomula (μM) Motility): > 10 µM; EC50 (S. mansoni schistosomula; Table 4, Series A, read-out: Anti-schistosomal activity EC50 Schistosomula (μM) Phenotype): > 10 µM
				3.69 µM	5.42 µM	Cc1ccc(Nc2nc3ccccc3nc2Nc2ccc(C)c(C)c2)cc1C [Compound 16]		Activity on schistosomula in the primary screen at 10 μM (S. mansoni schistosomula; 72 h): retained activity; EC50 (S. mansoni schistosomula; [9]): 4.55 µM; Effect on adult worm motility at 12.5 and 6.25 μM (S. mansoni adult worms): particularly active
				> 10 µM	> 10 µM	Fc1ccccc1Nc1nc2ccccc2nc1Nc1ccccc1F [Compound 13]	weak effect	
